Where two headings read alike, the source gives them in different places.
Columns and labels:
Serotonin 5-HT1D = Serotonin 5-HT1D (Homo sapiens, UniProt P28221); assay: PDSP binding screen
Serotonin 5-HT6 = Serotonin 5-HT6 (Homo sapiens, UniProt P50406); assay: PDSP binding screen
Adrenergic alpha1A = target: T1, Adrenergic alpha1A (Homo sapiens, UniProt P35348); assay: PDSP binding screen; settings: for inhibition at 10 µM: read-out: Ki (nM) or % inhibition at 10 µM: alpha1A
T1 sequence (P35348 1-466): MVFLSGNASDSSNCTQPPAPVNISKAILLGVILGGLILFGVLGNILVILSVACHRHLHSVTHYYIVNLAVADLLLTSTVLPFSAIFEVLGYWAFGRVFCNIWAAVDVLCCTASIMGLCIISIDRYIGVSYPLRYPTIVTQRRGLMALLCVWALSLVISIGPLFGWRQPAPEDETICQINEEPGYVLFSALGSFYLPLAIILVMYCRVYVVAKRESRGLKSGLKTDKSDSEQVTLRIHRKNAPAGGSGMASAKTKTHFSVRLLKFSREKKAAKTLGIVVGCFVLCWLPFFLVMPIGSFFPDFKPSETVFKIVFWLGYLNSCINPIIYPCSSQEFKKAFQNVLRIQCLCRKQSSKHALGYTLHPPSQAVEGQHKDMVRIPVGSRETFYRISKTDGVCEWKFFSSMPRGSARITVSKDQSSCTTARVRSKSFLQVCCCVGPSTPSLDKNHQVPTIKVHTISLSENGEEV

Adrenergic alpha1D = target: T2, Adrenergic alpha1D (Homo sapiens, UniProt P25100); assay: PDSP binding screen; settings: for inhibition at 10 µM: read-out: Ki (nM) or % inhibition at 10 µM: alpha1D
T2 sequence (P25100 1-572): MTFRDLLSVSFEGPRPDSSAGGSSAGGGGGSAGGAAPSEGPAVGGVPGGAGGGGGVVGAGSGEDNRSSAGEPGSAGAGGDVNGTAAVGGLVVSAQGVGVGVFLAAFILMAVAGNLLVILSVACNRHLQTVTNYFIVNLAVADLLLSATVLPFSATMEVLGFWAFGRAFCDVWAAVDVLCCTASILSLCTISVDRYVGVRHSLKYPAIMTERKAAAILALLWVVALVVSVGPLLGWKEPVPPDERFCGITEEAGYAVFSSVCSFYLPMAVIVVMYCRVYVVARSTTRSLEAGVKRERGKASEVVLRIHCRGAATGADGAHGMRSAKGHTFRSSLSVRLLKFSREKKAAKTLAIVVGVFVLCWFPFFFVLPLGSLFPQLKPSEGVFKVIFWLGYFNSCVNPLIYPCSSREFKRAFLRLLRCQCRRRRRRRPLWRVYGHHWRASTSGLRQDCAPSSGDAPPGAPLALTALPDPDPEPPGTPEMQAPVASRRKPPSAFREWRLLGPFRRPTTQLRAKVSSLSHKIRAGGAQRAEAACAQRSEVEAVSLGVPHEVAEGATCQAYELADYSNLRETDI

Adrenergic alpha2C = target: T3, Adrenergic alpha2C (Homo sapiens, UniProt P18825); assay: PDSP binding screen
T3 sequence (P18825 1-462): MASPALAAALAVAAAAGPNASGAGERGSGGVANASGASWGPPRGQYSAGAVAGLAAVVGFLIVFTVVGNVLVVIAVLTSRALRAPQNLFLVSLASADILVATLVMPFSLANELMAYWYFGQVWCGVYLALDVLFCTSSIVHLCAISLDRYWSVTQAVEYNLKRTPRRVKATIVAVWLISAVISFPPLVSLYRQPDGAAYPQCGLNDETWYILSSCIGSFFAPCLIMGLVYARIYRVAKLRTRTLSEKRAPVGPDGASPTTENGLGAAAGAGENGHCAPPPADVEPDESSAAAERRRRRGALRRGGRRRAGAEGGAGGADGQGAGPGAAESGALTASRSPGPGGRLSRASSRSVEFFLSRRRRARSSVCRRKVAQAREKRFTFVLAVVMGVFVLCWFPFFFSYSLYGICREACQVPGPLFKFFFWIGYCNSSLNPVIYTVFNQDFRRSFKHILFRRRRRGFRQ

Opioid MOR = Opioid MOR (Homo sapiens, UniProt P35372); assay: PDSP binding screen; settings: for inhibition at 10 µM: read-out: Ki (nM) or % inhibition at 10 µM: MOR
Chain of Opioid MOR (P35372 whole entry): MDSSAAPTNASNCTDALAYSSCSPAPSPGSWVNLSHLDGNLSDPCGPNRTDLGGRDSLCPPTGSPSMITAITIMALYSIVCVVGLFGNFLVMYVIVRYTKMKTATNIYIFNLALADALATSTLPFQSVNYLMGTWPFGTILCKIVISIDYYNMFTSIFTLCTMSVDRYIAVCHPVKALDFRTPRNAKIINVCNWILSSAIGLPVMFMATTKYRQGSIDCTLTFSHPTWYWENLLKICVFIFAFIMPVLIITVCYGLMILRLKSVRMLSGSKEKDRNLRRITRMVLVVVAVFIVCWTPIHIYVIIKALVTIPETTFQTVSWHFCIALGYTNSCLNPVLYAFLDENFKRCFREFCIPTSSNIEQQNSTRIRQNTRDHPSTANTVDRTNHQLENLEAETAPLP

Histamine H1 = Histamine H1 (Homo sapiens, UniProt P35367); assay: PDSP binding screen
Chain of Histamine H1 (P35367 whole entry): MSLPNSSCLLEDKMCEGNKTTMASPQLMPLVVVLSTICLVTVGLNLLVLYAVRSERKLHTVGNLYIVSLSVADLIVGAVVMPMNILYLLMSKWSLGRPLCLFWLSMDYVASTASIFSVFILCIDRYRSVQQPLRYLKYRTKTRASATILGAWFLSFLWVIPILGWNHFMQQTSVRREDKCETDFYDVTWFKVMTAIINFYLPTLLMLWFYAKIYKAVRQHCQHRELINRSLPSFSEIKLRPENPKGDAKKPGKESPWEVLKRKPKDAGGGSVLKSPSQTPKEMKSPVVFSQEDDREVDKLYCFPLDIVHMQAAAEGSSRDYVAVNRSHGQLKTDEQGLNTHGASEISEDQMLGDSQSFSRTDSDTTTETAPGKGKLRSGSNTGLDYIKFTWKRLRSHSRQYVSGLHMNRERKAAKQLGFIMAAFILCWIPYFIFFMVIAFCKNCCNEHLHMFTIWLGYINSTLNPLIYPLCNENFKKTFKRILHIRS

Muscarinic M1 = target: T4, Muscarinic M1 (Homo sapiens, UniProt P11229); assay: PDSP binding screen; settings: for inhibition at 10 µM: read-out: Ki (nM) or % inhibition at 10 µM: M1
T4 sequence (P11229 1-460): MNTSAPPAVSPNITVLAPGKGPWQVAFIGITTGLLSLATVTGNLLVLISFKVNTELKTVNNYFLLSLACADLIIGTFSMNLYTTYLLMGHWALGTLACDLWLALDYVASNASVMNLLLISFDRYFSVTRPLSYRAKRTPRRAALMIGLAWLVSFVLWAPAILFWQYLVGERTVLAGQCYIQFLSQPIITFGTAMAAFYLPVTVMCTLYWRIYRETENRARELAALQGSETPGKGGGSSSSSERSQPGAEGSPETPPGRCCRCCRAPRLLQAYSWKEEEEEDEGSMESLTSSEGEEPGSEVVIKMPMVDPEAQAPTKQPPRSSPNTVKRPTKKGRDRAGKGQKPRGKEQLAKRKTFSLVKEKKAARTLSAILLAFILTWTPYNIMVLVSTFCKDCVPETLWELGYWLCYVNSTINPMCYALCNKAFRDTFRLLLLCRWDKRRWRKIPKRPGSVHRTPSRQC

human D3 receptors = human D3 receptors (Homo sapiens, UniProt P35462); assay: β-arrestin recruitment assay (antagonist mode, competition with dopamine); format: cell-based; design: expressed in transfected cells; settings: for Emax: percentage of the maximum inhibition of dopamine at EC80 concentration, read-out: Imax (% Control)
Chain of human D3 receptors (P35462 whole entry): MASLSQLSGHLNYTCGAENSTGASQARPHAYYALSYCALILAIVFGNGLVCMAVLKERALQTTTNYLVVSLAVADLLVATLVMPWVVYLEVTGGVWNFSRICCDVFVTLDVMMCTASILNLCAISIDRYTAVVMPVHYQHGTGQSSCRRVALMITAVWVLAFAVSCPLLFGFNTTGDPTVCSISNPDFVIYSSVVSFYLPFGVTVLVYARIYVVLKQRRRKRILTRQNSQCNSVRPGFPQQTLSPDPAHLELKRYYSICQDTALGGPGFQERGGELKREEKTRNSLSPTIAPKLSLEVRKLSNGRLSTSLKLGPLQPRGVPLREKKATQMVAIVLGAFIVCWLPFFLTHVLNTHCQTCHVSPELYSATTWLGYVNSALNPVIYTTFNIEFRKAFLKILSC
Description: Two different assays were used to evaluate the properties of the analogs described above. The receptor binding affinity was measured by radioligand binding assays using [^125I]IABN with D2 or D3 receptors highly expressed HEK293 cells. The functional activity of the analogs was determined using a β-arrestin recruitment assay. The assay was initially conducted in agonist binding mode to confirm that they function as antagonists at the D3 receptor. Once this efficacy was confirmed, the assay was conducted in antagonist mode to determine the ability of the antagonist to compete with dopamine at the D3 receptor. The results of the antagonist mode assay are reported as IC50 values.
CHO-K1 cells which were overexpressed human D3 receptors were cultured in assaycomplete^TM cell culture kit 107. Cells were seeded at a density of 25,000 cells per well of 96-well plate, and incubated at 5% CO2, 37 °C. Two days later, test compounds were dissolved in DMSO, and diluted with 11-point series in phosphate-buffered saline (PBS). Prepared compounds were added to the cells, and it was incubated for 30 min at 5% CO2, 37 °C. Then, cells were treated with 30 nM (EC80) of dopamine, and the plate was incubated another 90 min. PathHunter^TM detection reagent was added to each well, and then plate was incubated for 80 min at RT in the dark. The chemiluminescent signal was measured by PerkinElmer Enspire plate reader (PerkinElmer, Boston, MA). Data were analyzed by Prism followed by non-linear regression.

[1] = potency for D3 receptors, CHO-K1 cells, vs 30 nM (EC80) dopamine, mean ± SD, three experiments, read-out: IC50

Chain of Serotonin 5-HT6 (P50406 whole entry): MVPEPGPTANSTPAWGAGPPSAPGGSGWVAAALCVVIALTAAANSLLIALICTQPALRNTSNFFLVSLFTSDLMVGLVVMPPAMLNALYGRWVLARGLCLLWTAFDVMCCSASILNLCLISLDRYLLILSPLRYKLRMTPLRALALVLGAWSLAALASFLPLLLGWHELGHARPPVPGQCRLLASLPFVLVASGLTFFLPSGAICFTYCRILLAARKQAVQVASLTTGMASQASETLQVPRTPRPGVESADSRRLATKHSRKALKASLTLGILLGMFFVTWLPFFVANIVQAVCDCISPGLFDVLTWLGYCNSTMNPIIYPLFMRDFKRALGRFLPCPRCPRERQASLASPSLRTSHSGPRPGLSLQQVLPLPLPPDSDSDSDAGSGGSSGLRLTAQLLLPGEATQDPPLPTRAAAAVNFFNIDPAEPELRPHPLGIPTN
Chain of Serotonin 5-HT1D (P28221 whole entry): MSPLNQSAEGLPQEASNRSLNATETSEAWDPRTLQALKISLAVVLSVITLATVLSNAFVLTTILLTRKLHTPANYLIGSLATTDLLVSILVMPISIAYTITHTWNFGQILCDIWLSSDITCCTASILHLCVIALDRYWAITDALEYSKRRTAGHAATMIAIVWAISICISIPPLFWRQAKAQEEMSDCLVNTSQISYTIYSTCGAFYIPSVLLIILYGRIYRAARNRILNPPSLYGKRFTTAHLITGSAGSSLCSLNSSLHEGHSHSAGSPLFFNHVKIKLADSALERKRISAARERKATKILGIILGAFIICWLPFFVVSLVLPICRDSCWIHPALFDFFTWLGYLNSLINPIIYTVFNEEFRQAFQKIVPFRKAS

Structure (SMILES)	Ki (Serotonin 5-HT1D)	Ki (Serotonin 5-HT6)	inhibition at 10 µM (Adrenergic alpha1A)	Ki (Adrenergic alpha1D)	Ki (Adrenergic alpha2C)	Ki (Opioid MOR)	Ki (Histamine H1)	Ki (Muscarinic M1)	Emax (human D3 receptors)	IC50 (human D3 receptors; [1])	Ki (Adrenergic alpha1A)	inhibition at 10 µM (Adrenergic alpha1D)	inhibition at 10 µM (Opioid MOR)	inhibition at 10 µM (Muscarinic M1)	IC50 (human D3 receptors)	inhibition at 10 µM (Serotonin 5-HT1D; read-out: Ki (nM) or % inhibition at 10 µM: 5-HT1D)
CCN(CCCNC(=O)c1cc2ccccc2[nH]1)CCNC(=O)c1cc(Br)cc(OC)c1OC [21d, N-(3-((2-(5-Bromo-2,3-dimethoxybenzamido)ethyl)(ethyl)amino)propyl)-1H-indole-2-carboxamide]	1660 nM	1630 nM	< 50%	7310 nM	532 nM	2410 nM	0.95 nM	> 10000 nM	57.7 ± 26.9%	9.3 ± 12 nM						
CCN(CCCNC(=O)c1ccc(-c2ccsc2)cc1)CCNC(=O)c1cc(Br)cc(OC)c1OC [21g, 5-Bromo-N-(2-(ethyl(3-(4-(thiophen-3-yl)benzamido)propyl)amino)ethyl)-2,3-dimethoxybenzamide]	1820 nM	363 nM		1410 nM	78 nM	2160 nM	102 nM	3430 nM	50.1 ± 20.9%	36.8 ± 35.7 nM	2110 nM					
CCN(CCCNC(=O)c1ccsc1)CCNC(=O)c1cc(Br)cc(OC)c1OC [21i, N-(3-((2-(5-Bromo-2,3-dimethoxybenzamido)ethyl)(ethyl)amino)propyl)thiophen-e-3-carboxamide]	3140 nM	2160 nM	< 50%		1290 nM		84 nM		99.6 ± 20.7%	2.7 ± 0.2 nM		< 50%	< 50%	< 50%		
CCN(CCCNC(=O)c1ccc2ccccc2c1)CCNC(=O)c1cc(Br)cc(OC)c1OC [21a, N-(3-((2-(5-Bromo-2,3-dimethoxybenzamido)ethyl)(ethyl)amino)propyl)-2-naphthamide]	1200 nM	730 nM	< 50%		195 nM	1080 nM	1510 nM		66.1 ± 17.6%	16.4 ± 7.7 nM		< 50%		< 50%		
CCN(CCCNC(=O)c1cc2ccccc2n1C)CCNC(=O)c1cc(Br)cc(OC)c1OC [21j, N-(3-((2-(5-Bromo-2,3-dimethoxybenzamido)ethyl)(ethyl)amino)propyl)-1-methyl-1H-indole-2-carboxamide]	1930 nM	1310 nM	< 50%		183 nM	2770 nM	1470 nM		81.5 ± 10.1%	4.8 ± 0.8 nM		< 50%		< 50%		
CCN(CCCNC(=O)c1ccc(-c2ccncc2)cc1)CCNC(=O)c1cc(Br)cc(OC)c1OC [21c, 5-Bromo-N-(2-(ethyl(3-(4-(pyridin-4-yl)benzamido)propyl)amino)ethyl)-2,3-dimethoxybenzamide]	1150 nM	1860 nM	< 50%		524 nM		591 nM	3390 nM	78.2 ± 18%	1.3 ± 1 nM		< 50%	< 50%			
CCN(CCCNC(=O)c1ccc(-c2cccs2)cc1)CCNC(=O)c1cc(Br)cc(OC)c1OC [9a, 5-Bromo-N-(2-(ethyl(3-(4-(thiophen-2-yl)benzamido)propyl)amino)ethyl)-2,3-dimethoxybenzamide]	1010 nM	287 nM	< 50%	2560 nM	313 nM	1560 nM	1490 nM	2350 nM	67.3 ± 18.9%						14 ± 7.4 nM	
CCN(CCCNC(=O)c1cn2ccccc2n1)CCNC(=O)c1cc(Br)cc(OC)c1OC [21e, N-(3-((2-(5-Bromo-2,3-dimethoxybenzamido)ethyl)(ethyl)amino)propyl)imidazo[1,2-a]pyridine-2-carboxamide]		2330 nM	< 50%		1760 nM		675 nM		85.4 ± 6%	4.3 ± 2.5 nM		< 50%	< 50%	< 50%		< 50%
CCCN(CCCNC(=O)c1ccc(-c2cccs2)cc1)CCNC(=O)c1cc(Br)cc(OC)c1OC [20a, 5-Bromo-2,3-dimethoxy-N-(2-(propyl(3-(4-(thiophen-2-yl)benzamido)propyl)amino)ethyl)benzamide]	449 nM	258 nM		2420 nM	113 nM	3020 nM	1360 nM		88.1 ± 20.4%	26.5 ± 12.9 nM	2210 nM			< 50%		

From publication PMC9820167, “Design and Synthesis of Conformationally Flexible Scaffold as Bitopic Ligands for Potent D3-Selective Antagonists” (International Journal of Molecular Sciences, 2022)
